Like-named read-outs stand apart in the source and are kept apart here.
Target: TAAR1 (Mus musculus, UniProt Q923Y8)
Assay: TAAR1 radioligand binding, membranes of stably transfected HEK293 cells (mouse)
Experimental: For the construction of expression plasmids the coding sequences of human, rat and mouse TAAR 1 were amplified from genomic DNA essentially as described by Lindemann et al.. The Expand High Fidelity PCR System (Roche Diagnostics) was used with 1.5 mM Mg^2+ and purified PCR products were cloned into pCR2.1-TOPO cloning vector (Invitrogen) following the instructions of the manufacturer. PCR products were subcloned into the pIRESneo2 vector (BD Clontech, Palo Alto, Calif.), and expression vectors were sequence verified before introduction in cell lines.
HEK293 cells (ATCC #CRL-1573) were cultured essentially as described Lindemann et al. (2005). For the generation of stably transfected cell lines HEK293 cells were transfected with the pIRESneo2 expression plasmids containing the TAAR coding sequences (described above) with Lipofectamine 2000 (Invitrogen) according to the instructions of the manufacturer, and 24 hrs post transfection the culture medium was supplemented with 1 mg/ml G418 (Sigma, Buchs, Switzerland). After a culture period of about 10 d clones were isolated, expanded and tested for responsiveness to trace amines (all compounds purchased from Sigma) with the cAMP Biotrak Enzyme immunoassay (EIA) System (Amersham) following the non-acetylation EIA procedure provided by the manufacturer.
Cells at confluence were rinsed with ice-cold phosphate buffered saline without Ca^2+ and Mg^2+ containing 10 mM EDTA and pelleted by centrifugation at 1000 rpm for 5 min at 4° C. The pellet was then washed twice with ice-cold phosphate buffered saline and cell pellet was frozen immediately by immersion in liquid nitrogen and stored until use at −80° C. Cell pellet was then suspended in 20 ml HEPES-NaOH (20 mM), pH 7.4 containing 10 mM EDTA, and homogenized with a Polytron (PT 3000, Kinematica) at 10,000 rpm for 10 s. The homogenate was centrifuged at 48,000×g for 30 min at 4° C. and the pellet resuspended in 20 ml HEPES-NaOH (20 mM), pH 7.4 containing 0.1 mM EDTA (buffer A), and homogenized with a Polytron at 10,000 rpm for 10 s. The homogenate was then centrifuged at 48,000×g for 30 min at 4° C. and the pellet resuspended in 20 ml buffer A, and homogenized with a Polytron at 10,000 rpm for 10 s. Protein concentration was determined by the method of Pierce (Rockford, Ill.). The homogenate was then centrifuged at 48,000×g for 10 min at 4° C., resuspended in HEPES-NaOH (20 mM), pH 7.0 including MgCl2 (10 mM) and […] homogenized with a Polytron at 10,000 rpm for 10 s.
Binding assay was performed at 4° C. in a final volume of 1 ml, and with an incubation time of 30 min. […] Non-specific binding was defined as the amount of [^3H]-rac-2-(1,2,3,4-tetrahydro-1-naphthyl)-2-imidazoline bound in the presence of the appropriate unlabelled ligand (10 μM). Competing ligands were tested in a wide range of concentrations (10 pM-30 μM). […] Each experiment was performed in duplicate. All incubations were terminated by rapid filtration through UniFilter-96 plates (Packard Instrument Company) and glass filter GF/C, pre-soaked for at least 2 h in polyethylenimine 0.3%, and using a Filtermate 96 Cell Harvester (Packard Instrument Company). The tubes and filters were then washed 3 times with 1 ml aliquots of cold buffer B. Filters were not dried and soaked in Ultima gold (45 μl/well, Packard Instrument Company) and bound radioactivity was counted by a TopCount Microplate Scintillation Counter (Packard Instrument Company).

[1] = mouse/rat, cell not marked 'rat', radioligand [3H]-rac-2-(1,2,3,4-tetrahydro-1-naphthyl)-2-imidazoline, 4° C., read-out: Ki (μM) mouse/rat

## NC1=NC(c2cccc(Br)c2)CO1 (racemic) [Example 186, (RS)-4-(3-Bromo-phenyl)-4,5-dihydro-oxazol-2-ylamine]
  Ki: 0.0045 µM

## C[C@]1(c2cc(F)c(F)c(F)c2)COC(N)=N1 [Example 306, (S)-4-Methyl-4-(3,4,5-trifluoro-phenyl)-4,5-dihydro-oxazol-2-ylamine]
[1]
  Ki: 0.0027 µM

## NC1=NC(c2cccc3ccccc23)CO1 (racemic) [Example 34, (RS)-4-Naphthalen-1-yl-4,5-dihydro-oxazol-2-ylamine]
  Ki: 0.0011 µM

## NC1=NC(c2ccc(Br)c(F)c2)CO1 (racemic) [Example 252, (RS)-4-(4-Bromo-3-fluoro-phenyl)-4,5-dihydro-oxazol-2-ylamine]
  Ki: 0.0008 µM

## NC1=N[C@@H](CCc2ccc(OC(F)(F)F)c(Cl)c2)CO1 [Example 150, (S)-4-[2-(3-Chloro-4-trifluoromethoxy-phenyl)-ethyl]-4,5-dihydro-oxazol-2-ylamine]
[1]
  Ki: 0.0009 µM

## Cc1cc(C2(C)COC(N)=N2)ccc1Cl (racemic) [Example 263, (RS)-4-(4-Chloro-3-methyl-phenyl)-4-methyl-4,5-dihydro-oxazol-2-ylamine]
  Ki: 0.0023 µM

## NC1=NC(c2ccccc2Br)CO1 (racemic) [Example 237, (RS)-4-(2-Bromo-phenyl)-4,5-dihydro-oxazol-2-ylamine]
  Ki: 0.0025 µM

## NC1=N[C@@H](CCc2ccccc2F)CO1 [Example 111, (S)-4-[2-(2-Fluoro-phenyl)-ethyl]-4,5-dihydro-oxazol-2-ylamine]
[1]
  Ki: 0.0011 µM

## NC1=NC(CCc2ccccc2)CO1 (racemic) [D, (RS)-4-Phenethyl-4,5-dihydro-oxazol-2-ylamine, reference compound]
  Ki: 0.001 µM

## C[C@]1(CCc2ccc(Cl)cc2)COC(N)=N1 [Example 244, (S)-4-[2-(4-Chloro-phenyl)-ethyl]-4-methyl-4,5-dihydro-oxazol-2-ylamine]
[1]
  Ki: 0.0057 µM

## NC1=N[C@@H](CCc2ccc(F)cc2)CO1 [Example 85, (S)-4-[2-(4-Fluoro-phenyl)-ethyl]-4,5-dihydro-oxazol-2-ylamine]
[1]
  Ki: 0.0011 µM

## C[C@]1(c2cc(F)ccc2F)COC(N)=N1 [Example 187, (S)-4-(2,5-Difluoro-phenyl)-4-methyl-4,5-dihydro-oxazol-2-ylamine]
[1]
  Ki: 0.0021 µM

## C[C@]1(c2ccc(F)cc2F)COC(N)=N1 [Example 206, (S)-4-(2,4-Difluoro-phenyl)-4-methyl-4,5-dihydro-oxazol-2-ylamine]
[1]
  Ki: 0.0032 µM

## NC1=N[C@@H](CCc2cc(Cl)cc(Cl)c2)CO1 [Example 138, (S)-4-[2-(3,5-Dichloro-phenyl)-ethyl]-4,5-dihydro-oxazol-2-ylamine]
[1]
  Ki: 0.0012 µM

## C[C@]1(c2ccc(Cl)c(F)c2)COC(N)=N1 [Example 236, (S)-4-(4-Chloro-3-fluoro-phenyl)-4-methyl-4,5-dihydro-oxazol-2-ylamine]
[1]
  Ki: 0.002 µM

## NC1=N[C@@H](c2ccc(Cl)cc2Cl)CO1 [Example 296, (+)-(S)-4-(2,4-Dichloro-phenyl)-4,5-dihydro-oxazol-2-ylamine]
[1]
  Ki: 0.0004 µM

## NC1=NC(c2cc(Cl)cc(Cl)c2)CO1 (racemic) [Example 189, (RS)-4-(3,5-Dichloro-phenyl)-4,5-dihydro-oxazol-2-ylamine]
  Ki: 0.0008 µM

## NC1=N[C@@H](CCc2cc(C(F)(F)F)ccc2C(F)(F)F)CO1 [Example 160, (S)-4-[2-(2,5-Bis-trifluoromethyl-phenyl)-ethyl]-4,5-dihydro-oxazol-2-ylamine]
[1]
  Ki: 0.0028 µM

## NC1=N[C@@H](CC2(c3ccc(Cl)cc3)CC2)CO1 [Example 257, (S)-4-[1-(4-Chloro-phenyl)-cyclopropylmethyl]-4,5-dihydro-oxazol-2-ylamine]
[1]
  Ki: 0.0074 µM

## C[C@]1(c2ccc(F)c(Cl)c2)COC(N)=N1 [Example 277, (S)-4-(3-chloro-4-fluoro-phenyl)-4-methyl-4,5-dihydro-oxazol-2-ylamine]
[1]
  Ki: 0.0016 µM

## Cc1cc(C2(C)COC(N)=N2)c(F)cc1Cl (racemic) [Example 274, (RS)-4-(4-Chloro-2-fluoro-5-methyl-phenyl)-4-methyl-4,5-dihydro-oxazol-2-ylamine]
[1]
  Ki: 0.0011 µM

## Cc1cccc(CC[C@H]2COC(N)=N2)c1 [Example 115, (S)-4-(2-m-Tolyl-ethyl)-4,5-dihydro-oxazol-2-ylamine]
  Ki: 0.001 µM

## Cc1c(F)cccc1C1COC(N)=N1 (racemic) [Example 365, (RS)-4-(3-Fluoro-2-methyl-phenyl)-4,5-dihydro-oxazol-2-ylamine]
  Ki: 0.0029 µM

## CC(Cc1ccccc1)[C@H]1COC(N)=N1 (stereo partly drawn) [Example 154, (S)-4-(1-Methyl-2-phenyl-ethyl)-4,5-dihydro-oxazol-2-ylamine]
[1]
  Ki: 0.0034 µM

## NC1=N[C@@H](CCc2cccc(Br)c2)CO1 [Example 143, (S)-4-[2-(3-Bromo-phenyl)-ethyl]-4,5-dihydro-oxazol-2-ylamine]
[1]
  Ki: 0.0007 µM

## Cc1ccc([C@H]2COC(N)=N2)cc1Cl [Example 374, (+)-(S)-4-(3-Chloro-4-methyl-phenyl)-4,5-dihydro-oxazol-2-ylamine]
[1]
  Ki: 0.0006 µM

## NC1=NC(c2ccc(OC(F)(F)F)cc2)CO1 (racemic) [Example 12, (RS)-4-(4-Trifluoromethoxy-phenyl)-4,5-dihydro-oxazol-2-ylamine]
  Ki: 0.008 µM

## CC1(c2ccc(Cl)cc2Cl)COC(N)=N1 (racemic) [Example 294, (RS)-4-(2,4-Dichloro-phenyl)-4-methyl-4,5-dihydro-oxazol-2-ylamine]
[1]
  Ki: 0.0038 µM

## CC[C@@H](C[C@H]1COC(N)=N1)c1ccccc1 [Example 292, (S)-4-((S)-2-Phenyl-butyl)-4,5-dihydro-oxazol-2-ylamine]
[1]
  Ki: 0.0035 µM

## NC1=NC(c2cc(Cl)ccc2C(F)(F)F)CO1 (racemic) [Example 225, (RS)-4-(5-Chloro-2-trifluoromethyl-phenyl)-4,5-dihydro-oxazol-2-ylamine]
  Ki: 0.0062 µM

## NC1=NC(c2cccc(F)c2C(F)(F)F)CO1 (racemic) [Example 371, (RS)-4-(3-Fluoro-2-trifluoromethyl-phenyl)-4,5-dihydro-oxazol-2-ylamine]
  Ki: 0.0096 µM

## NC1=N[C@@H](c2ccc3ccccc3c2)CO1 [Example 103, (S)-4-Naphthalen-2-yl-4,5-dihydro-oxazol-2-ylamine]
[1]
  Ki: 0.0004 µM

## C[C@]1(c2ccc(Cl)c(Cl)c2)COC(N)=N1 [Example 135, (S)-4-(3,4-Dichloro-phenyl)-4-methyl-4,5-dihydro-oxazol-2-ylamine]
[1]
  Ki: 0.0009 µM

## NC1=NC(c2cc(F)ccc2C(F)(F)F)CO1 (racemic) [Example 249, (RS)-4-(5-Fluoro-2-trifluoromethyl-phenyl)-4,5-dihydro-oxazol-2-ylamine]
  Ki: 0.0075 µM

## NC1=N[C@@H](COc2ccc(Cl)cc2)CO1 [Example 216, (S)-4-(4-Chloro-phenoxymethyl)-4,5-dihydro-oxazol-2-ylamine]
[1]
  Ki: 0.002 µM

## NC1=N[C@@H](CCc2cccc(Cl)c2Cl)CO1 [Example 149, (S)-4-[2-(2,3-Dichloro-phenyl)-ethyl]-4,5-dihydro-oxazol-2-ylamine]
[1]
  Ki: 0.0019 µM

## CCC(C[C@H]1COC(N)=N1)c1cc(F)cc(Cl)c1 (stereo partly drawn) [Example 357, (S)-4-[2-(3-Chloro-5-fluoro-phenyl)-butyl]-4,5-dihydro-oxazol-2-ylamine]
[1]
  Ki: 0.0068 µM

## NC1=N[C@@H](CCc2cc(F)cc(C(F)(F)F)c2)CO1 [Example 159, (S)-4-[2-(3-Fluoro-5-trifluoromethyl-phenyl)-ethyl]-4,5-dihydro-oxazol-2-ylamine]
[1]
  Ki: 0.001 µM

## C[C@]1(CCc2ccccc2Cl)COC(N)=N1 [Example 228, (S)-4-[2-(2-Chloro-phenyl)-ethyl]-4-methyl-4,5-dihydro-oxazol-2-ylamine]
[1]
  Ki: 0.004 µM

## NC1=NC(c2ccc(F)cc2F)CO1 (racemic) [Example 7, (RS)-4-(2,4-Difluoro-phenyl)-4,5-dihydro-oxazol-2-ylamine]
  Ki: 0.0083 µM
